Test results as given in US20240167001A1, “THREE-DIMENSIONAL TUMOR MODEL OF GLIOBLASTOMA AND BRAIN METASTASIS, METHODS OF MANUFACTURING SAME AND USES THEREOF” (Ramot at Tel-Aviv University Ltd., priority 2021, published 2024).

Experiments:
P-selectin (SELP) = target: T1, P-selectin (SELP) (Homo sapiens, UniProt P16109); settings: lymphocytes; read-out: IC50 for inhibition of SELP binding in lymphocytes; cited from earlier work
T1 sequence (P16109 42-830): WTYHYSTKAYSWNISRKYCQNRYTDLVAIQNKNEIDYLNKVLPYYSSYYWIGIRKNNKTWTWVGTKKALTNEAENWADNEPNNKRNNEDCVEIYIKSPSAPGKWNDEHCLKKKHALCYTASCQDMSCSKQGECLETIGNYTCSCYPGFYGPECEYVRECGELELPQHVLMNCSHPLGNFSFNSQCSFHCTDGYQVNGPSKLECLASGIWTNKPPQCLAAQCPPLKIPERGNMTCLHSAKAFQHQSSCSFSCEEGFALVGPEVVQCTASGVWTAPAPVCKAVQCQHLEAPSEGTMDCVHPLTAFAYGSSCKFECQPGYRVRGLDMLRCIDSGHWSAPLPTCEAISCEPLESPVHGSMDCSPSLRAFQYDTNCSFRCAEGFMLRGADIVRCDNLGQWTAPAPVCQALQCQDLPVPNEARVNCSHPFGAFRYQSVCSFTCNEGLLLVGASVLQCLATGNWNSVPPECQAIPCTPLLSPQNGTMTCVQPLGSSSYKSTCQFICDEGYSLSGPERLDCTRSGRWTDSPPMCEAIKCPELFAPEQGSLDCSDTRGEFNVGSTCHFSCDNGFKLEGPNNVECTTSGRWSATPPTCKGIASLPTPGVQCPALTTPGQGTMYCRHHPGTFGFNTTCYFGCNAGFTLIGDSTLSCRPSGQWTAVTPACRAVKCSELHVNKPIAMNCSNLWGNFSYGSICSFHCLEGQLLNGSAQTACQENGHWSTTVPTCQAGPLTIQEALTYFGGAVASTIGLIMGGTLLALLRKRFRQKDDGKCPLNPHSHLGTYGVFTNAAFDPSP

PD-GB4 cells [1] = assay: Proliferation in fibrin 3D-bio-ink in the presence of SELPi (ImageJ, RLU); format: cell-based, human; settings: 0.5 M [sic] KF38789, fibrin 3D-bio-ink; p=0.0001
Method: (§1) PD-GB4 iRFP-labeled were casted into 96 glass bottom well plates (Cellvis, California, USA) in a core tumor at a density of 1×10^7 cells/ml and surrounded with 1×10^6 cells/ml un-labeled hAstro. Experiments were done in a medium mixture at 1:1:1 ratio of DMEM, astrocytes medium and microglia medium. For invasion estimation of dormant versus fast-growing cell types, mCherry-labeled U-87MG and T98-G human GB cells (2×10^6 cells/ml) were plated in a glass bottom 96-well plates in the core of fibrin 3D-bio-ink. The surrounding fibrin 3D-bio-ink was an empty, clear fibrin 3D-bio-ink. Experiments were done in a medium mixture at 1:1:1:1:1 ratio of DMEM, astrocytes medium, microglia medium, pericytes medium and Endo-Gro medium. Cell invasion was monitored for 2-5 weeks using EVOS FL Auto cell imaging system and quantified by ImageJ software, presented here as relative light units (RLU). Cells invasion was normalized by comparing the size of the cell core at day 1 (polygon drawing shape) up to day 14. 2 weeks. Each group contained 6-12 samples and the experiments were repeated in three independent times. For the evaluation of proliferation in the presence of P-selectin inhibitor (SELPi), mCherry-labeled U-87MG-F and T98G-F cells generating fast-growing tumors or iRFP-labeled PD-GB4 cells (4×10^6 cells/ml) were seeded in a glass bottom 96-well plate in the core of fibrin 3D-bio-ink. The surrounding fibrin 3D-bio-ink was an empty, clear fibrin 3D-bio-ink. Cells were then treated with […] KF38789 which is a selective inhibitor of P-selectin (SELPi) which were chosen to serve as a small molecule drug. […] P-selectin (SELP) functions as a cell adhesion molecule on the surfaces of cells which binds carbohydrates (18). It is also involved in tumor cell binding and promote their invasion by supporting a permissive metastatic microenvironment and SELP is highly expressed in GB (28). […] Proliferation was quantified during time with ImageJ software by RLU. […]

T98G-F cells [2] = assay: as above; format: cell-based, human; settings: 0.5 M [sic] KF38789, fibrin 3D-bio-ink; p=0.00003
Method: as §1

U-87MG-F cells [3] = assay: as above; format: cell-based, human; settings: 0.5 M [sic] KF38789, fibrin 3D-bio-ink; p=4×10^−6
Method: as §1

PD-GB4 cells [4] = assay: 2D proliferation assay with SELPi (IncuCyte); format: cell-based, human; settings: 0.5 μM SELPi
Method: (§2) For growth curve evaluation, U-87MG and T98G human GB cells dormant and fast-growing tumor cells (29) (25,000 cells/well) were seeded onto 24-well plates in complete DMEM and incubated for 72 h (37° C.; 5% CO2). For the comparison of […] cell types growth curves in 2D culture, 10,000 cells/well were cultured in DMEM following a daily incubation with PrestoBlue® reagent for 4 h. For proliferation evaluation in the presence of SELPi, U-87MG and T98G human GB cells generating dormant and fast-growing tumors, or PD-GB4 cells (25,000 cells/well) were plated onto 24-well plate in complete DMEM and incubated for 24 h (37° C.; 5% CO2) to allow cell attachment. Cells were then treated with either 0.5 μM SELPi or with DMSO vehicle at corresponding % v/v of 0.2% v/v, prepared in medium mixture at 1:1:1:1:1 ratio of DMEM, astrocytes medium, microglia medium, pericytes medium and Endo-Gro medium, for 30 min. All wells were washed twice with PBS and incubated further with fresh medium mixture. Cell proliferation was monitored by IncuCyte® Zoom Live cell analysis system (Essen Bioscience), while the first images were taken right before the treatment. Each group was assayed in triplicates and the experiment was repeated in three independent times. Proliferation of cells was normalized to time 0 and presented as percent (%) of cell confluence.

T98G-F cells [5] = assay: 2D proliferation assay with SELPi (IncuCyte); format: cell-based, human; settings: 0.5 μM SELPi
Method: as §2

U-87MG-F cells [6] = assay: 2D proliferation assay with SELPi (IncuCyte); format: cell-based, human; settings: 0.5 μM SELPi
Method: as §2

patient-derived GB cells = assay: TMZ resistance evaluation, patient-derived GB cells in 2D culture; format: cell-based; settings: Homo sapiens, 72 h, 3 patient-derived GB cells, 3 days, all three cell types, read-out: IC50 of TMZ, patient-derived cells grown in 2D culture
Method: The resistance of patient-derived cells to TMZ (LIXIN, China) was assessed in fibrin 3D-bio-ink and in 2D culture. Patient-derived cells were seeded in fibrin 3D-bio-ink at 1×10^7 cells/ml density to match resemble a very dens GB tissue, in different TMZ concentrations (2000 μM -0.01 μM) for 7 days. For the 2D culture TMZ resistance evaluation 20,000-40,000 cells/well were seeded in 24 well plate in fresh DMEM. We replaced the media to media with different TMZ concentrations (10 μM -0.01 μM) for 3 days. Then, the 3D-bio-ink samples were placed in 500 μl PrestoBlue in 24 well plate and incubated at 37° C. for 3 h.

COc1ccc(C2CC(c3c(O)cc(C)oc3=O)=NCCS2)c(OC)c1 (centres unmarked) [SELPi, KF38789]
IC50 (P-selectin (SELP)): 2000 nM
Inhibition of PD-GB4 cell proliferation in fibrin 3D-bio-ink (PD-GB4 cells [1]): significant inhibition
Inhibition of T98G fast-growing cells in fibrin 3D-bio-ink (T98G-F cells [2]): significant inhibition
Inhibition of U-87MG fast-growing cells in fibrin 3D-bio-ink (U-87MG-F cells [3]): significant inhibition
Effect on proliferation of PD-GB4 in 2D culture (PD-GB4 cells [4]): did not affect
Effect on T98G-F cells in 2D culture (T98G-F cells [5]): did not affect
Effect on U-87MG-F cells in 2D culture (U-87MG-F cells [6]): did not affect

Cn1nnc2c(C(N)=O)ncn2c1=O [TMZ, Temozolomide]
IC50 (patient-derived GB cells): ~4 nM
